{"source": "paper PMC10648875", "about": "(Antimicrobial Agents and Chemotherapy, 2023)", "key": {"[1]": {"system": "PAM4885 producing SPM-1", "assay": "MIC, engineered isogenic strain", "type": "cell-based, P. aeruginosa", "settings": "SPM-1, class B; BLIs at fixed 4 µg/mL"}, "[2]": {"system": "surveillance isolates of carbapenem-resistant strains of Enterobacterales", "assay": "MIC testing of SENTRY surveillance CRE isolates (Table 4, Table S4)", "type": "cell-based", "settings": "for % Inhibited: at ≤8 µg/mL β-lactam (IMP/REL ≤1/4, MEM/VAB ≤4/8 (≤8/8) µg/mL), footnote b"}, "[3]": {"system": "Escherichia coli NCTC 13353 (ECM7514), CTX-M-15", "assay": "MIC, reference strain", "type": "cell-based", "description": "(§1) Other BL/BLI combinations were tested at their recommended BLI concentrations. MIC values for the partner antibiotics and BLIs alone were also determined (Table 2; Table S1). All investigational and marketed BLIs enhanced the potency of antibiotics according to their spectrum of inhibition. MIC values against CLSI-approved QC strains were within acceptable ranges for drugs and combinations tested (Table 3).\n(§2) Isolates were tested for antimicrobial susceptibility using the broth microdilution methodology per CLSI M07 (2018) guidelines ([40]). JMI Laboratories produced frozen-form 96-well panels with cation-adjusted Mueller-Hinton broth as the testing medium. Current CLSI quality assurance practices were followed when performing the susceptibility tests. MIC values were validated by concurrently testing the following CLSI-recommended ([27]) QC reference strains: E. coli NCTC 13353 (CTX-M-15), Klebsiella pneumoniae ATCC BAA-2814 (KPC-3), Klebsiella pneumoniae ATCC BAA-1705 (KPC-2), and K. pneumoniae ATCC 700603 (SHV-18). The inoculum density during susceptibility testing was monitored by bacterial colony counts. Where applicable, QC ranges for tested reference strains were those approved or published by the CLSI ([27]). Meropenem was purchased from Carbosynth; ceftolozane was synthesized at Acme Bioscience, Palo Alto, CA, USA; all other antibiotics were from Sigma Aldrich. Xeruborbactam was synthesized at Qpex Biopharma, San Diego, CA, USA. Avibactam was purchased from eNovation, Chemicals LLC, Bridgewater, NJ, USA. Vaborbactam was synthesized at The Medicines Company, San Diego, CA. Relebactam, taniborbactam, and relebactam were synthesized at Acme Bioscience."}, "[4]": {"system": "PAM4846 producing OXA-9", "assay": "MIC, engineered isogenic strain", "type": "cell-based, P. aeruginosa", "settings": "OXA-9, class D; BLIs at fixed 4 µg/mL"}, "[5]": {"system": "P. aeruginosa BAA-3197 (PA5257), KPC-2", "assay": "MIC, reference strain", "type": "cell-based"}, "[6]": {"system": "K. pneumoniae ATCC BAA-2814 (KP1074), KPC-3", "assay": "MIC, reference strain", "type": "cell-based", "description": "as §1\nas §2, with “([27]).” for “([27]). Meropenem was purchased from Carbosynth; ceftolozane was synthesized at Acme Bioscience, Palo Alto, CA, USA; all other antibiotics were from Sigma Aldrich. Xeruborbactam was synthesized at Qpex Biopharma, San Diego, CA, USA. Avibactam was purchased from eNovation, Chemicals LLC, Bridgewater, NJ, USA. Vaborbactam was synthesized at The Medicines Company, San Diego, CA. Relebactam, taniborbactam, and relebactam were synthesized at Acme Bioscience.”"}, "[7]": {"system": "Klebsiella pneumoniae ATCC 700603 (KPM2881), SHV-18", "assay": "MIC, reference strain", "type": "cell-based", "description": "as §1\nas §2, with “([27]).” for “([27]). Meropenem was purchased from Carbosynth; ceftolozane was synthesized at Acme Bioscience, Palo Alto, CA, USA; all other antibiotics were from Sigma Aldrich. Xeruborbactam was synthesized at Qpex Biopharma, San Diego, CA, USA. Avibactam was purchased from eNovation, Chemicals LLC, Bridgewater, NJ, USA. Vaborbactam was synthesized at The Medicines Company, San Diego, CA. Relebactam, taniborbactam, and relebactam were synthesized at Acme Bioscience.”"}, "[8]": {"system": "E. coli CDC 0069 (EC1106), NDM-1", "assay": "MIC, reference strain", "type": "cell-based", "settings": "Escherichia coli, BLI at the fixed concentration in brackets, read-out: MIC", "description": "as §1\nas §2, with “([27]).” for “([27]). Meropenem was purchased from Carbosynth; ceftolozane was synthesized at Acme Bioscience, Palo Alto, CA, USA; all other antibiotics were from Sigma Aldrich. Xeruborbactam was synthesized at Qpex Biopharma, San Diego, CA, USA. Avibactam was purchased from eNovation, Chemicals LLC, Bridgewater, NJ, USA. Vaborbactam was synthesized at The Medicines Company, San Diego, CA. Relebactam, taniborbactam, and relebactam were synthesized at Acme Bioscience.”"}, "[9]": {"system": "K. pneumoniae CDC 0135 (KP1291), VIM-1", "assay": "MIC, reference strain", "type": "cell-based", "settings": "Klebsiella pneumoniae, BLI at the fixed concentration in brackets, read-out: MIC", "description": "as §1\nas §2, with “([27]).” for “([27]). Meropenem was purchased from Carbosynth; ceftolozane was synthesized at Acme Bioscience, Palo Alto, CA, USA; all other antibiotics were from Sigma Aldrich. Xeruborbactam was synthesized at Qpex Biopharma, San Diego, CA, USA. Avibactam was purchased from eNovation, Chemicals LLC, Bridgewater, NJ, USA. Vaborbactam was synthesized at The Medicines Company, San Diego, CA. Relebactam, taniborbactam, and relebactam were synthesized at Acme Bioscience.”"}, "[10]": {"system": "K. pneumoniae ATCC BAA-1705 (KPM1123), KPC-2", "assay": "MIC, reference strain", "type": "cell-based", "description": "as §1\nas §2, with “([27]).” for “([27]). Meropenem was purchased from Carbosynth; ceftolozane was synthesized at Acme Bioscience, Palo Alto, CA, USA; all other antibiotics were from Sigma Aldrich. Xeruborbactam was synthesized at Qpex Biopharma, San Diego, CA, USA. Avibactam was purchased from eNovation, Chemicals LLC, Bridgewater, NJ, USA. Vaborbactam was synthesized at The Medicines Company, San Diego, CA. Relebactam, taniborbactam, and relebactam were synthesized at Acme Bioscience.”"}, "[11]": {"system": "PAM4800 producing GES-19", "assay": "MIC, engineered isogenic strain", "type": "cell-based, P. aeruginosa", "settings": "GES-19, class A; BLIs at fixed 4 µg/mL"}, "[12]": {"system": "PAM4876 producing OXA-72", "assay": "MIC, engineered isogenic strain", "type": "cell-based, P. aeruginosa", "settings": "OXA-72, class D; BLIs at fixed 4 µg/mL"}, "[13]": {"system": "PAM4196 producing IMP-13", "assay": "MIC, engineered isogenic strain", "type": "cell-based, P. aeruginosa", "settings": "IMP-13, class B; BLIs at fixed 4 µg/mL"}}, "note": "Where two headings read alike, the source gives them in different places.", "data": [{"smiles": "CO/N=C(\\C(=O)N[C@@H]1C(=O)N2C(C(=O)[O-])=C(C[N+]3(C)CCCC3)CS[C@H]12)c1csc(N)n1", "note": "[FEP, cefepime]", "values": [{"measurement": "MIC", "setting": "[1]", "value": "> 64", "unit": "µg/mL"}, {"measurement": "MIC50", "setting": "[2]", "value": "> 32", "unit": "µg/mL"}, {"measurement": "MIC90", "setting": "[2]", "value": "> 32", "unit": "µg/mL"}, {"measurement": "MIC50", "setting": "[2]; All surveillance CRE, read-out: MIC50", "value": "> 32", "unit": "µg/mL"}, {"measurement": "MIC90", "setting": "[2]; All surveillance CRE, read-out: MIC90", "value": "> 32", "unit": "µg/mL"}, {"measurement": "% Inhibited", "setting": "[2]; KPC subset", "value": 11.70, "unit": "%"}, {"measurement": "MIC50", "setting": "[2]; KPC subset, read-out: MIC50", "value": "> 32", "unit": "µg/mL"}, {"measurement": "MIC90", "setting": "[2]; KPC subset, read-out: MIC90", "value": "> 32", "unit": "µg/mL"}, {"measurement": "% Inhibited", "setting": "[2]; MBL subset", "value": 0.00, "unit": "%"}, {"measurement": "MIC50", "setting": "[2]; MBL subset, read-out: MIC50", "value": "> 32", "unit": "µg/mL"}, {"measurement": "MIC90", "setting": "[2]; MBL subset, read-out: MIC90", "value": "> 32", "unit": "µg/mL"}, {"measurement": "% Inhibited", "setting": "[2]; NDM subset", "value": 0.00, "unit": "%"}, {"measurement": "MIC50", "setting": "[2]; NDM subset, read-out: MIC50", "value": "> 32", "unit": "µg/mL"}, {"measurement": "MIC90", "setting": "[2]; NDM subset, read-out: MIC90", "value": "> 32", "unit": "µg/mL"}, {"measurement": "% Inhibited", "setting": "[2]; No MBL subset", "value": 15.50, "unit": "%"}, {"measurement": "MIC50", "setting": "[2]; No MBL subset, read-out: MIC50", "value": "> 32", "unit": "µg/mL"}, {"measurement": "MIC90", "setting": "[2]; No MBL subset, read-out: MIC90", "value": "> 32", "unit": "µg/mL"}, {"measurement": "% Inhibited", "setting": "[2]; Non-CP CRE subset", "value": 15.20, "unit": "%"}, {"measurement": "MIC50", "setting": "[2]; Non-CP CRE subset, read-out: MIC50", "value": "> 32", "unit": "µg/mL"}, {"measurement": "MIC90", "setting": "[2]; Non-CP CRE subset, read-out: MIC90", "value": "> 32", "unit": "µg/mL"}, {"measurement": "% Inhibited", "setting": "[2]; OXA-48 subset", "value": 21.50, "unit": "%"}, {"measurement": "MIC50", "setting": "[2]; OXA-48 subset, read-out: MIC50", "value": "> 32", "unit": "µg/mL"}, {"measurement": "MIC90", "setting": "[2]; OXA-48 subset, read-out: MIC90", "value": "> 32", "unit": "µg/mL"}, {"measurement": "% Inhibited", "setting": "[2]; VIM subset", "value": 0.00, "unit": "%"}, {"measurement": "MIC50", "setting": "[2]; VIM subset, read-out: MIC50", "value": 32, "unit": "µg/mL"}, {"measurement": "MIC90", "setting": "[2]; VIM subset, read-out: MIC90", "value": "> 32", "unit": "µg/mL"}, {"measurement": "MIC", "setting": "[3]; Escherichia coli, NCTC13353, CTX-M-15, BLI at the fixed concentration in brackets, read-out: MIC", "value": "> 64", "unit": "µg/mL"}, {"measurement": "MIC (number of observations)", "setting": "[3]; Table S1, repeated QC testing", "value": "32 (1)-64(5)->128 (10) µg/ml"}, {"measurement": "MIC", "setting": "[4]", "value": 2, "unit": "µg/mL"}, {"measurement": "MIC", "setting": "[5]; Pseudomonas aeruginosa, BAA3197, KPC-2, BLI at the fixed concentration in brackets, read-out: MIC", "value": "> 64", "unit": "µg/mL"}, {"measurement": "MIC (number of observations)", "setting": "[5]; Table S1, repeated QC testing", "value": "> 128", "unit": "µg/mL"}, {"measurement": "MIC", "setting": "[6]; Klebsiella pneumoniae, ATCCBAA2814, KPC-3, BLI at the fixed concentration in brackets, read-out: MIC", "value": "> 64", "unit": "µg/mL"}, {"measurement": "MIC (number of observations)", "setting": "[6]; Table S1, repeated QC testing", "value": "> 32", "unit": "µg/mL"}, {"measurement": "MIC", "setting": "[7]; Klebsiella pneumoniae, ATCC700603, SHV-18, BLI at the fixed concentration in brackets, read-out: MIC", "value": 1, "unit": "µg/mL"}, {"measurement": "MIC (number of observations)", "setting": "[7]; Table S1, repeated QC testing", "value": "0.5(1)-1(8)-2(1)-4(1) µg/ml"}, {"measurement": "MIC", "setting": "[8]", "value": 64, "unit": "µg/mL"}, {"measurement": "MIC", "setting": "[9]", "value": "> 64", "unit": "µg/mL"}, {"measurement": "MIC", "setting": "[10]; Klebsiella pneumoniae, ATCCBAA1705, KPC-2, BLI at the fixed concentration in brackets, read-out: MIC", "value": 32, "unit": "µg/mL"}, {"measurement": "MIC (number of observations)", "setting": "[10]; Table S1, repeated QC testing", "value": "32 (40)->32(6) µg/ml"}, {"measurement": "MIC", "setting": "[11]", "value": 64, "unit": "µg/mL"}, {"measurement": "MIC", "setting": "[12]", "value": 2, "unit": "µg/mL"}, {"measurement": "MIC", "setting": "[13]", "value": 16, "unit": "µg/mL"}]}]}
